Results: ChEMBL document CHEMBL5728840, “Vasopressin receptor antagonists and products and methods related thereto” (2021)

Biological target: Vasopressin V1a receptor (Homo sapiens, UniProt P37288)
Assay: Vasopressin V1A Receptor Antagonist Assay: The purpose of this assay was to determine the inhibitory effect of synthesized compounds on the Vasopressin V1a receptor. The assay as performed in Chinese Hamster Ovary (CHO) cells expressing the human Arginine Vasopressin Receptor 1a (AVPR1a). Arginine Vasopressin (AVP) evokes an increase in intracellular calcium in CHO-AVPR1a cells which is measured in a fluorescence assay on the […] using calcium sensitive dyes. Test compounds were assessed for their ability to affect the magnitude of the response to AVP, with antagonists showing a concentration-dependent reduction in the AVP-mediated fluorescence. Compounds were tested in duplicate in a 10-point, 1:3 dilution series starting at a nominal concentration of 3 μM in the assay.CHO-AVPR1a cells were maintained in routine culture in T175 Flasks at 37° C., 5% CO2. The growth medium consists of Ham's F12 media supplemented with 10% v/v fetal bovine serum, 1× non-essential amino acids, and 0.4 mg/ml Geneticin G418.
Assay type: cell-based

Vasopressin V1a receptor, sequence (P37288 whole entry): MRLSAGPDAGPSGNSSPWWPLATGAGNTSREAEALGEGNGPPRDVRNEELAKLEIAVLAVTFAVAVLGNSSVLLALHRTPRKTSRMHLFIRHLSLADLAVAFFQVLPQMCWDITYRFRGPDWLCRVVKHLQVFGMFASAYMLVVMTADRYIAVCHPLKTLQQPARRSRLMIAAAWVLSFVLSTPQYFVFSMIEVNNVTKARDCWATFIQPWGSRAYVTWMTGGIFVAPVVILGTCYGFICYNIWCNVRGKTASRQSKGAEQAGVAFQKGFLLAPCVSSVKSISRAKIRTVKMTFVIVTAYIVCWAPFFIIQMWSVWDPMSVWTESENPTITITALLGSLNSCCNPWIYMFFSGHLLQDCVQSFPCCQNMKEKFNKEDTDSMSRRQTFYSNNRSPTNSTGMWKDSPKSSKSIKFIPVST

Row | SMILES | IC50
1 | CN(C)C(=O)N1Cc2cc(Cl)ccc2-n2c(nnc2C2CC3(C2)CN(c2ccc(F)cn2)C3)C1 | < 100 nM
2 | O=C(C1CC1)N1CC2(CC(c3nnc4n3-c3ccc(Cl)cc3CN(C3CC3)C4)C2)C1 | < 100 nM
